Measurements as given in ChEMBL document CHEMBL1137669, “BK Virus replication in vitro: limited effect of drugs interfering with viral uptake and intracellular transport” (Antimicrob Agents Chemother, 2007).

How the values were obtained:
[1] = system: BK polyomavirus; test: Antiviral activity against BKV Gardner ATCC VR837 infected in human WI38 cells assessed as reduction in viral DNA level preincubated for 2 hrs before viral infection measured after 7 days by real time PCR assay; format: functional, organism-based, Betapolyomavirus hominis, WI-38
[2] = Cytotoxicity against human WI38 cells assessed as reduction in cellular DNA level preincubated for 2 hrs before viral infection measured after 7 days by real time PCR assay; format: cell-based, WI-38; settings: for CC50 at 168 h: WI38 cells
[3] = Cytotoxicity against human WI38 cells assessed as reduction in cellular DNA level after 7 days by real time PCR assay; format: cell-based, WI-38
[4] = Selectivity index, ratio of CC50 for human WI38 cells by conventional neutral red assay to EC50 for BKV Gardner ATCC VR837; format: toxicity, cell-based, WI-38; settings: read-out: Ratio CC50/EC50
[5] = Cytotoxicity against human WI38 cells by conventional neutral red assay; format: cell-based, WI-38
[6] = Selectivity index, ratio of CC50 for human WI38 cells preincubated for 2 hrs before viral infection measured after 7 days by real time PCR assay to EC50 for BKV Gardner ATCC VR837; format: toxicity, cell-based, WI-38; settings: for selectivity ratio at 168 h: WI38 cells, read-out: Ratio CC50/EC50
[7] = system: BK polyomavirus; test: Antiviral activity against BKV Gardner ATCC VR837 infected in human WI38 cells assessed as reduction in viral DNA level after 7 days by real time PCR assay; format: functional, organism-based; settings: Betapolyomavirus hominis, WI-38, 168 h
[8] = Selectivity index, ratio of CC50 for human WI38 cells after 7 days by real time PCR assay to EC50 for BKV Gardner ATCC VR837; format: toxicity, cell-based, WI-38; settings: read-out: Ratio CC50/EC50
[9] = Cytotoxicity against human WI38 cells assessed as reduction in cellular DNA level at 6.25 uM preincubated for 2 hrs before viral infection measured after 7 days by real time PCR assay; format: cell-based; settings: wi-38, 168 h
[10] = Betapolyomavirus hominis, Gardner, WI-38

Row | Molecule | EC50 [1, 10] [µM] | CC50 at 168 h [2] [µM] | selectivity ratio at 168 h [6] | further results
1 | CO[C@H]1O[C@H](CO)[C@@H](O)[C@H](O)[C@@H]1O | > 100 | > 100 | – | –
2 | CCCCCCCCO[C@@H]1O[C@H](CO)[C@@H](O)[C@H](O)[C@H]1O | > 100 | > 100 | – | –
3 | CC(=O)OC[C@H]1OC[C@H](OC(C)=O)[C@@H](OC(C)=O)[C@H]1OC(C)=O | > 100 | > 100 | – | –
4 | CC(=O)OC[C@H]1OC[C@H](OC(C)=O)[C@@H](OC(C)=O)[C@@H]1OC(C)=O | > 100 | > 100 | – | –
5 | COC(=O)[C@H]1O[C@@H](OC(C)=O)[C@H](OC(C)=O)[C@@H](OC(C)=O)[C@@H]1OC(C)=O | > 100 | > 100 | – | –
6 | CCCCCCCCCO[C@@H]1O[C@H](CO)[C@@H](O)[C@H](O)[C@H]1O | 6.35 | 78.3 | 16 | CC50 at 168 h [3]: 114 µM; selectivity ratio [4]: 30.5; CC50 [5]: 126 µM; EC50 [7]: 98.3 µM; selectivity ratio at 168 h [8]: 1.25
7 | COC(=O)[C@H]1O[C@@H](O)[C@H](O)[C@@H](O)[C@H]1O | > 100 | > 100 | – | –
8 | O=C(O)[C@H]1OC(O)[C@H](O)[C@@H](O)[C@@H]1O (some centres undefined) | > 100 | > 100 | – | –
9 | O=C1OC([C@@H](O)CO)[C@H](O)[C@@H]1O (some centres undefined) | > 100 | > 100 | – | –
10 | C[C@@H]1[C@H](O)[C@@H](C)/C=C/C=C/C=C/C=C/C=C/C=C/C=C/[C@H](O[C@@H]2O[C@H](C)[C@@H](O)[C@H](N)[C@@H]2O)C[C@@H]2O[C@](O)(C[C@@H](O)C[C@@H](O)[C@H](O)CC[C@@H](O)C[C@@H](O)CC(=O)O[C@H]1C)C[C@H](O)[C@H]2C(=O)O [AMPHOTERICIN B] | 1.67 | 4.99 | 2.99 | Activity [9]: Active
11 | CCN(CC)CCCC(C)Nc1ccnc2cc(Cl)ccc12 (centres undefined) [CHLOROQUINE] | 1.7 | 8.5 | 5.32 | –
12 | CN(C)CCCN1c2ccccc2Sc2ccc(Cl)cc21 [CHLORPROMAZINE] | 7.6 | 10.3 | 1.98 | –
13 | CN1CCN(C2=Nc3cc(Cl)ccc3Nc3ccccc32)CC1 [CLOZAPINE] | 23.3 | 40 | 4.9 | –
14 | COc1cc2c(c(OC)c1OC)-c1ccc(OC)c(=O)cc1[C@@H](NC(C)=O)CC2 [COLCHICINE] | 0.022 | 0.0476 | 3.63 | –
15 | Cc1cc2c(s1)Nc1ccccc1N=C2N1CCN(C)CC1 [OLANZAPINE] | > 100 | > 100 | – | –
16 | Cc1nc2n(c(=O)c1CCN1CCC(c3noc4cc(F)ccc34)CC1)CCCC2 [RISPERIDONE] | > 25 | 25 | – | –
17 | O=C1Cc2cc(CCN3CCN(c4nsc5ccccc45)CC3)c(Cl)cc2N1 [ZIPRASIDONE] | > 100 | > 100 | – | –
18 | NYSTATIN | – | – | – | Ratio CC50/EC50 ([6]; wi-38, 168 h): 5.13; EC50 ([1]; wi-38): 9.81 µM; CC50 ([2]; wi-38, 168 h): 48.6 µM
